Test results published in PMC5177923 (2016).

Key:
[1] = system: hTeloCFRET (DNA, i motif) TAACCCTAACCCTAACCCTAACCC; assay: FRET melting; conditions: 100 mM NaCl; 10 mM sodium cacodylate pH 6; 10 μM compound, 200 nM DNA
[2] = system: hTeloGFRET (DNA, G4) GGGTTAGGGTTAGGGTTAGGG; assay: FRET melting; conditions: 100 mM NaCl; 10 mM sodium cacodylate pH 7.4; 10 μM compound, 200 nM DNA
[3] = system: DSFRET (DNA, hairpin, HEG(18) linker (non-nucleotide) between 10 and 11) TATAGCTATATATAGCTATA; assay: FRET melting; conditions: 100 mM NaCl; 10 mM sodium cacodylate pH 7.4; 10 μM compound, 200 nM DNA
[4] = system: hTeloC (DNA, i motif) TAACCCTAACCCTAACCCTAACCC; assay: circular dichroism; conditions: 100 mM NaCl; 10 mM sodium cacodylate pH 5.5, 20 °C
[5] = system: hTeloCBiotin (DNA, i motif) TAACCCTAACCCTAACCCTAACCC; assay: SPR, equilibrium affinity fit, 1:1 model; conditions: 100 mM NaCl; 10 mM sodium cacodylate pH 5.5, 0.05% Tween-20, 5% DMSO, 25 °C
[6] = system: c-mycBiotin (DNA, i motif) CCTTCCCCACCCTCCCCACCCTCCCCA; assay: SPR, equilibrium affinity fit, 1:1 model; conditions: 100 mM NaCl; 10 mM sodium cacodylate pH 5.5, 0.05% Tween-20, 5% DMSO, 25 °C
[7] = system: DSBiotin (DNA, duplex) GGCATAGTGCGTGGGCGTTAGC/GCTAACGCCCACGCACTATGCC; assay: SPR, equilibrium affinity fit, 1:1 model; conditions: 100 mM NaCl; 10 mM sodium cacodylate pH 5.5, 0.05% Tween-20, 5% DMSO, 25 °C

| ΔTm [1] | ΔTm [2] | ∆Tm [2] | ∆Tm [3] | binding [4] | Kd [5] [µM] | Kd [6] [µM] | Kd [7] | SMILES |
| --- | --- | --- | --- | --- | --- | --- | --- | --- |
| +17 °C | +0.4 °C | – | – | – | – | – | – | CN(C)CCNc1cccc2c1C(=O)c1cccc(NCCNc3ccccc3)c1C2=O |
| – | – | +16 °C | +6.4 °C | yes | 12 ± 3 | 12 ± 3 | ~ 71 ± 22 μM | O=C1c2c(O)ccc(O)c2C(=O)c2c(NCCNCCO)ccc(NCCNCCO)c21 |
